# Test results published in PubChem BioAssay AID449764 (Southern Research Specialized Biocontainment Screening …, 2010).
# System: Mycobacterium tuberculosis H37Rv growth inhibition, no glycerol
# Assay: Mycobacterium tuberculosis H37Rv growth inhibition, no glycerol, confirmatory dose response (AID 449764);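 further: growth read after 7 days of incubation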
# Details: for IC90: measured here: IC90 growth inhibition
SMILES,IC50 [µM],IC90 [µM]
COc1ccccc1C1CC(c2ccc(Cl)cc2)Nc2ncnn21 (stereo not drawn),22.7,30.7
Cc1ccc(-c2ccc(C3C(C#N)=C(N)Oc4n[nH]c(C)c43)o2)cc1 (stereo not drawn),–,> 100
C=CCOc1c(Br)cc(CNc2nccs2)cc1OC,31.4,48.2
COc1ccc(OCC(=O)Nc2c(C(=O)N(CCN(C)C)Cc3ccco3)oc3ccccc23)cc1,41.8,45.9
Cc1nc(SCC(=O)NC2CCCCC2)[nH]c(=O)c1C,< 0.2,0.57
COc1cc2ccccc2cc1C(=O)Nc1ccc(Cc2ccncc2)cc1,18.9,27.3
O=C(NCc1ccccn1)C(=O)Nc1nc(C23CC4CC(CC(C4)C2)C3)cs1,6.5,14.7
COc1cc(CNCCc2ccccc2)cc(Cl)c1OCc1ccccc1,23.8,26.2
COc1cccc(NC(=O)C2CCN(Cc3cnn(-c4ccccc4)c3-n3cccc3)CC2)c1,54.9,90
O=C(NC(C(=O)N/N=C/c1cccc2ccccc12)c1n[nH]c(=O)c2ccccc12)c1ccccc1 (stereo not drawn),58.8,> 100
O=C(Oc1ccccc1)c1ccccc1OS(=O)(=O)c1ccccc1,2.37,14.1
CCc1nnc(NS(=O)(=O)c2ccc(N/C=C\C(=O)c3cccc(OC)c3)cc2)s1,38.5,53
C/C(=N\NC(N)=S)c1ccc(Cl)s1,11.8,23.4
CCOC(=O)C1=NOC(CNc2ncc(C(F)(F)F)cc2Cl)C1 (stereo not drawn),11.3,14.4
O=c1[nH]c(=O)n(C2CCCO2)cc1F (stereo not drawn),57.1,> 100
CN(C)C/C=C/C(=O)Nc1cccc(-c2c[nH]c3ncnc(Oc4ccc(NC(=O)CC(=O)Nc5ccc(F)cc5)cc4F)c23)c1,12.3,14
CCn1c2ccccc2c2cc(CNCc3ccc(OC)cc3OC)ccc21,12.2,14
O=C(OCC(=O)c1cccs1)C1=COCCO1,29.9,> 100

SMILES,IC50 [µM],IC90 [µM]
O=c1c(C=Nc2ccc(Oc3ccccc3)cc2)c[nH]n1-c1cccc(Cl)n1,23.3,> 100
Clc1ccc(CNc2nc(CN3CCOCC3)nc3scc(-c4ccccc4)c23)cc1,33.5,42.1
Fc1cccc(CCN2CCNC[C@H]2Cc2cccc3ccccc23)c1,35.5,46.3
CCc1ccc(/C=C2/C(=O)N(C)C(=S)N2CC(=O)OC)s1,4.81,6.97
C#CCOc1ccc2c(c1)c(C(C)=O)c(C)n2Cc1ccccc1,–,> 100
CCOC(=O)c1c(NC(=O)C(NCCN(C)C)c2ccccc2)sc2c1CCCC2 (stereo not drawn),9.32,12.1
c1ccc2c(C3=NNC(=NC4CCCCC4)SC3)c[nH]c2c1,37.7,45.4
CN1C(C(=O)NCc2ccc(OC(F)(F)F)cc2)CC2Cn3c(nc4cc(Cl)c(Cl)cc43)C21 (stereo not drawn),44.2,70.4
O=C(NCCN1CCN(c2cccc(Cl)c2)CC1)c1ccc(CSc2nc3ccncc3[nH]2)cc1,21.8,32.1
COc1ccc(C(=O)C[n+]2ccc3c(c2)nc(-c2cc(OC)c(OC)cc2OC)n3C)cc1,11.6,13.1
FC(F)(F)c1cc(CO[C@@H]2CCCN[C@@H]2c2ccccc2)cc(C(F)(F)F)c1,27.4,38.2
CCOC(=O)C(C)Sc1nc(-c2cccs2)ccc1C#N (stereo not drawn),44.2,50.3
CCC(C)c1ccc2oc(-c3ccc(NC(=O)c4ncn[nH]4)cc3)nc2c1 (stereo not drawn),8.12,33
Oc1c(C(c2ccccc2Cl)N2CCCC2)ccc2cccnc12 (stereo not drawn),31.2,37.7
Cc1c(C(=O)Nc2nc3ccccc3[nH]2)oc2c(Cl)cccc12,80.4,> 100
N#CCCN(C(=O)COC(=O)CCc1c[nH]c2ccccc12)c1ccc(F)cc1,34.4,68.5
CC(C)(O)C#Cc1ccc(C(=O)Nc2ccc3c(c2)OCO3)s1,42.9,> 100
